In patent publication US6699497B1 (Alza Corporation, priority 1998, dated 2004):
Where a name gives a salt, the structure may show the parent alone.

Assays:
[1] = in vitro transdermal flux of fenoldopam through human epidermis; format: in vitro ADME
From the text: The resulting mix was then calendered to a 5 mil thickness between 2 release liners. The drug reservoir was then heat laminated to a Medpar® backing on one surface and a 3M acrylate adhesive on the other. Circular systems were cut with a stainless steel punch.
The release liner of the matrix system was then removed and each system had its exposed edges masked. The systems were then mounted on a Teflon® holder of a release rate rod using nylon mesh and nickel wire. A known volume of receptor solution (30 ml 0.01 M phosphate buffer solution at pH 2.5) was then placed in a test tube and equilibrated at 35° C. The test tube was placed in a water bath and maintained at 35° C. The Teflon rod with attached system was then reciprocated within the test tube by attaching the rod to a motor which caused constant vertical mixing.
At given time intervals, the entire receptor solution was removed from the test tubes and replaced with an equal volume of fresh receptor solutions previously equilibrated at 35° C. […] From the drug concentration and the volume of the receptor solutions, the area of the system and the time interval, the release rate of the drug from the system was calculated as follows: (drug concentration X volume of receptor)/(area x time) =release rate (μg/cm^2·hr).
(§1) Transdermal systems set forth in Table 1 were prepared according to Example 1 and used to measure permeation through human cadaver skin. […] The edges of epidermis were then folded around the system so that none of the system edge was exposed to the receptor solution. […] The receptor compartment was filled with a known volume of 0.01 M KH2PO4/K2HPO4 which was adjusted to pH 2.5 with 10% H3PO4 buffer solution previously equilibrated at 35° C.
as §1, with “in Table 2 were prepared” for “in Table 1 were prepared”, “according to the procedure set forth in Example 1” for “according to Example 1”

[2] = in vivo; cited from earlier work
[3] = mild to moderate hypertensive patients; cited from earlier work
[4] = oral administration; cited from earlier work

SMILES	lag period on transdermal administration [1]	permeability through the skin, formulations of base compared to formulations of salts ([1]; in general, compared to salts such as fenoldopam mesylate)	transdermal flux compared to formulations of the base ([1]; myristyl sarcosine as permeation enhancer)	effect on systolic and diastolic blood pressure [2]	elimination half-life [3]	clinical benefit [4]
Oc1ccc(C2CNCCc3c2cc(O)c(O)c3Cl)cc1 (stereo not shown) [fenoldopam base]	long lag period	more permeable through the skin				
Oc1ccc(C2CNCCc3c2cc(O)c(O)c3Cl)cc1 (stereo not shown) [fenoldopam mesylate]	did not exhibit the long lag period		higher transdermal fluxes			
Oc1ccc(C2CNCCc3c2cc(O)c(O)c3Cl)cc1 (stereo not shown) [fenoldopam, 6-Chloro-2,3,4,5-tetrahydro-1-(4-hydroxyphenol)-1H-3-benzapine-7,8 diol]				dose-dependent reduction in systolic and diastolic blood pressure	about 5 minutes	does not provide any clinical benefit
